Measurements from PMC12124388, “High-affinity PQQ import is widespread in Gram-negative bacteria” (Science Advances, 2025).

Columns and labels:
PqqU (formerly YncD) [1] = molecular target: T1, PqqU (formerly YncD) (Escherichia coli, UniProt P76115); assay: cryo-EM structure of complex, […] Å; type: binding; details: 43 μM PqqU with 910 μM PQQ; LMNG micelle; single PQQ in internal extracellular-side cavity, loops 7 and 8 closed; no metal bound to PQQ
T1 construct: 10xHis-tagged PqqU from pET-20b-pqqU, expressed in E. coli BL21 (DE3) C41, purified from membranes (DDM or LMNG), 76 kDa monomer; 700 residues in full, 39-699 modelled
T1 sequence (P76115 24-700): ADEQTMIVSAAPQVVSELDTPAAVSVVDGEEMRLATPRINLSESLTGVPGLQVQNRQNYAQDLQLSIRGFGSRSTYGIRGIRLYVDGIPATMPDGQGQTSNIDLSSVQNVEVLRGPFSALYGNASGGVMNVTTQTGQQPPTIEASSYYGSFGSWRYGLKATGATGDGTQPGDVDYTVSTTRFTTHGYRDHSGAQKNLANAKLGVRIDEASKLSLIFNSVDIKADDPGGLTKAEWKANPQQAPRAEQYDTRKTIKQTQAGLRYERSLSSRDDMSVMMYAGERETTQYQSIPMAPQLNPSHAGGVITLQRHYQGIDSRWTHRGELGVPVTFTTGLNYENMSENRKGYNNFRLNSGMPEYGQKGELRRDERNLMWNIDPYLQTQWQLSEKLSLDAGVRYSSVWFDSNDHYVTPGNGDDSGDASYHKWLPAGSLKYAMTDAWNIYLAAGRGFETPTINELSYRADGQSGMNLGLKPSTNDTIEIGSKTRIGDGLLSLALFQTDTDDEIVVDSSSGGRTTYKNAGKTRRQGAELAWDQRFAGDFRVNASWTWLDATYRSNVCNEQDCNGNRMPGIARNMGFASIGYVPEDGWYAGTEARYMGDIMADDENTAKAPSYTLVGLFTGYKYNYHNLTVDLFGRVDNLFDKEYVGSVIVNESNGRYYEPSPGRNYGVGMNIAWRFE

PqqU (formerly YncD) [2] = molecular target: T1, PqqU (formerly YncD); assay: isothermal titration calorimetry; type: binding; details: 50 mM tris-HCl pH 7.4, 150 mM NaCl; LMNG-purified, excess detergent removed; PQQ as disodium salt, oxidized; curve not accurately fitted, Kd only stated as low to subnanomolar range

## O=C(O)c1cc(C(=O)O)c2c(n1)C(=O)C(=O)c1cc(C(=O)O)[nH]c1-2 [PQQ]
PqqU (formerly YncD) [1]
  cryo-EM structure of complex, 1.99 Å: we used cryo-EM to resolve the structure of the PqqU-PQQ complex
PqqU (formerly YncD) [2]
  Kd: likely with a Kd in the low to subnanomolar range
